Here are results for 1 compound from article PMC12549899 (Nature Communications, 2025).

A short description of the data set: Mixing of DMSO master stock into aqueous cryo-EM sample (precipitation). It is filed as physicochemical. The conditions noted are these: 0.2 µL of 2.17 M DMSO stock into 40 µL DrOTOP1 sample, nominal ≤ 10.85 mM, 0.5% DMSO. The procedure: All protein purification steps were performed at 4 °C, and buffers were chilled on ice until use unless otherwise noted. Cell pellets were thawed in a room-temperature water bath and resuspended in Solubilization Buffer (25 mM Tris pH 8.0, 150 mM NaCl, 1% n-dodecyl-β-d-maltoside (DDM), 0.15% cholesteryl hemisuccinate (CHS), […], 1 mM phenylmethylsulfonyl Fluoride (PMSF), 2 µM pepstatin A and 2 mM dithiothreitol (DTT)) and was stirred for 1 – 3 h for detergent solubilization. The lysate was centrifuged at 40,000 × g and the supernatant was collected. […]. Next, the mixture was flowed over a gravity chromatography column, and flowthrough containing GFP-cleaved DrOTOP1 was collected and concentrated in a 100 kDa cutoff centrifugal concentrator (Amicon® Ultra or Pierce™) that was pre-equilibrated with SEC1 Buffer, to 500 µL volume. […] The resulting peaks were analyzed with sodium dodecyl sulfate-polyacrylamide gel electrophoresis (SDS-PAGE), and fractions corresponding to dimeric DrOTOP1 were pooled. […] The resulting peaks were analyzed with SDS-PAGE, and fractions corresponding to dimeric DrOTOP1 in lipid nanodisc were pooled and concentrated to 2 – 5 mg/mL with a 100 kDa cutoff centrifugal concentrator (Amicon® Ultra or Pierce™). […]

`C=C(C)COc1ccccc1NC(=O)c1nc[nH]c1C` [C2.2]: the “Solubility in aqueous buffer” value is on record as “visible precipitation formed”.
